Measurements from US9487494B2, “Cyclic hydrocarbon compounds for the treatment of diseases” (LEO PHARMA A/S, priority 2007, dated 2016).

What was measured:
[1] = molecular target: recombinant human P450 2D6 (Homo sapiens (Human), UniProt P10635); assay: Screening for P450 2D6 inhibition (fluorescent AMMC substrate); type: in vitro ADME; conditions: recombinant human P450 CYP2D6, AMMC substrate, 30 min
Method: The assay rapidly screen for potential inhibitors of human P450 2D6 catalytic activity, by using recombinant human P450 2D6. The IC50 determination is performed in duplicate at eight concentrations.
Incubations were conducted in 96 well microtiter plates based on a method described by BD Biosciences. To the first well in each row, a NADPH regenerating system and test compound was added. In the second well and all remaining wells, NADPH regenerating system and acetonitrile (final concentration of 2%) was added. The final assay concentration of the NADPH regenerating system was 8.2 μM NADP^+, 0.41 mM glucose-6-phosphate, 0.41 mM magnesium chloride hexahydrate and 0.4 U/ml glucose-6-phosphate dehydrogenase and 0.01 mg/mL control insect cell membrane protein. The test compound solution was serially diluted 1:3 through the eighth wells.
The final concentration of the test compounds were in the range 100 μM to 45.7 nM in the eight rows. Wells 9 and 10 contained no test compound (only NADPH regenerating system and enzyme/substrate mix) and wells 11 and 12 were used as controls for background fluorescence (enzyme and substrate were added after the reaction was terminated). The plate was then pre-incubated at 37° C. for 10 min, and the reaction was initiated by the addition of pre-warmed enzyme/substrate mix. The assay concentration of the enzyme/substrate mix was 100 mM potassium phosphate, pH 7.4, 1.5 pmol recombinant human P450 CYP2D6 and 1.5 μM of the fluorescent substrate 3-[2-(N,N diethyl-N-methylamino)ethyl]-7-methoxy-4-methylcounnarin (AMMC). The assay was conducted in duplicate in a final volume of 200 μL per well. Reactions were terminated after 30 min by addition of a 4:1, acetonitrile:0.5 M Tris base solution. Quinidine was used as positive control, 0.5 μM as highest concentration. Fluorescence per well was measured using a fluorescence plate reader (excitation: 390 nm, emission: 460 nm). The IC50 values were calculated.

[2] = tested on: normal male Sprague Dawley rats; assay: In vivo test in normal rats (serum PTH and calcium); design: species or system rat; conditions: for PTH suppression / Suppression of Ca^2+: 1 mg/kg p.o., single dose, 2 hours after dosing, compared to vehicle-treated animals; for ED50: Rattus norvegicus, 2 h, oral single doses, blood two hours thereafter, normal rats, read-out: ED50 with respect to PTH suppression
Method: Various compounds were administered to normal male Sprague Dawley rats in order to examine the pharmacological effect on serum levels of total calcium and parathyroid hormone (PTH). The experiments were performed by orally administering a single dose of the respective compounds as compared to vehicle-treated animals or animals treated with the competitor compound Cinacalcet.
As a standard, a group of six animals were treated orally with 1 mg/kg of compound as a 1% methylcellulose suspension and two hours thereafter, blood was obtained by retro-orbital bleeding under anaesthesia and the serum calcium and PTH levels were measured.
In some instances, rats were treated orally with various doses of a given compound in 1% methylcellulose (six rats/dose) and blood was obtained by retro-orbital bleeding two hours thereafter. Using the software GraphPad Prism® 5, ED50 values for Cinacalcet, Compound 1056, Compound 1186, and Compound 1190 with respect to PTH suppression were calculated to be 0.9 mg/kg, 0.1 mg/kg, 0.04 mg/kg, and 0.002 mg/kg, respectively.
For some compounds, rats were bled at several time-points after oral administration (six rats/time point), and suppression of serum PTH levels was observed over time.

[3] = tested on: rat 5/6 nephrectomy model; assay: In vivo test using the 5/6 nephrectomy model in rats (secondary hyperparathyroidism); conditions: 336 h, oral once daily for two weeks, 5/6 nephrectomized rats, read-out: ED50, PTH lowering effect
Description: The lowering effect of different compounds on serum PTH was examined in vivo in the rat 5/6 nephrectomy model which is a widely accepted animal model of secondary hyperparathyroidism.
Two-third of the rats' (Sprague Dawley, at least 8 weeks old) left kidney was surgically removed followed by removal of the right kidney one week later.
After disease initiation, blood was obtained by retro-orbital bleeding and urine was collected using metabolic cages. Serum PTH, calcium, phosphorus, albumin, creatinine, and BUN as well as urinary creatinine and albumin were measured. Rats were then stratified into different treatment groups (9-12 rats/group) based on the results obtained. One group of normal rats without surgery served as control (“control”) and one group of nephrectomized rats treated with vehicle (1% Methylcellulose) was used as another control (“5/6 NEPX”). All other groups were treated orally with test compound at various doses once daily for two weeks and the above mentioned parameters were monitored weekly.

Sequence of recombinant human P450 2D6 (P10635 whole entry): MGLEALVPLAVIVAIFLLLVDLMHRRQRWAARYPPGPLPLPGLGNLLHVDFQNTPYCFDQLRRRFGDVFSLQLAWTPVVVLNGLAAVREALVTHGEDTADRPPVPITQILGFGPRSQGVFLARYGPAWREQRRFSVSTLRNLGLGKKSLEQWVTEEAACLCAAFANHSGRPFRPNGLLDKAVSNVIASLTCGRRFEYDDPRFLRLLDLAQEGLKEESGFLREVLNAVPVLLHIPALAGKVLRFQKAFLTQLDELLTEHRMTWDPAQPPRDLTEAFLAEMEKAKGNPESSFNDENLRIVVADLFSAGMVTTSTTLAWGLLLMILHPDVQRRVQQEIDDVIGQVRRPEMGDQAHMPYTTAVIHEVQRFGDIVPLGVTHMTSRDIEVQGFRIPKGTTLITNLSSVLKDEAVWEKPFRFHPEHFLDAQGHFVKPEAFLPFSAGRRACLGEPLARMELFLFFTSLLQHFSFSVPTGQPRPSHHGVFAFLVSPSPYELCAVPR

Row | IC50 [1] | Compound | PTH suppression [2] | Suppression of Ca^2+ [2] | ED50 [2] | ED50 [3]
1 | 25 µM | C[C@@H](N[C@H]1CCC[C@H](c2ccc(C(=O)N3CC(C(=O)O)C3)cc2)C1)c1cccc2ccccc12 [Compound 1142, 1-{4-[(1S,3S)-3-((R)-1-Naphthalen-1-yl-ethylamino)-cyclohexyl]-benzoyl}-azetidine-3-carboxylic acid] |  |  |  | 
2 | 16 µM | C[C@@H](N[C@H]1CCC[C@H](c2ccc(C(=O)N3CCC(C(=O)O)CC3)cc2)C1)c1cccc2ccccc12 [Compound 1146, 1-{4-[(1S,3S)-3-((R)-1-Naphthalen-1-yl-ethylamino)-cyclohexyl]-benzoyl}-piperidine-4-carboxylic acid] | 84% | 0% |  | 
3 | 13 µM | C[C@@H](N[C@H]1CCC[C@H](c2ccc(C(=O)NCC(=O)O)cc2)C1)c1cccc2ccccc12 [Compound 1115, {4-[(1S,3S)-3-((R)-1-Naphthalen-1-yl-ethylamino)-cyclohexyl]-benzoylamino}-acetic acid] | 50% | 3% |  | 
4 | 10 µM | C[C@@H](NC1CCCC(c2ccc(C(=O)O)cc2)C1)c1cccc2ccccc12 (stereo partly drawn) [Compound 1056, 4-[3-((R)-1-naphthalen-1-yl-ethylamino)-cyclohexyl]-benzoic acid] | 85% | 1% | 0.1 mg/kg | ~2 mg/kg

Second part, the compound before the results:

Row | Compound | IC50 [1] | PTH suppression [2] | Suppression of Ca^2+ [2] | ED50 [2] | ED50 [3]
5 | C[C@@H](N[C@H]1CC[C@@H](c2ccc(OCC(=O)O)cc2)C1)c1cccc2ccccc12 [Compound 1186, {4-[(1R,3S)-3-((R)-1-Naphthalen-1-yl-ethylamino)-cyclopentyl]-phenoxy}-acetic acid] | 50 µM | 98% | 6% | 0.04 mg/kg | ~0.3 mg/kg
6 | C[C@@H](NC1CC[C@H](c2ccc(C(=O)O)cc2)C1)c1cccc2ccccc12 (stereo partly drawn) [Compound 1338, 4-[3-((R)-1-Naphthalen-1-yl-ethylamino)-cyclopentyl]-benzoic acid] | 100 µM | 85% | 29% |  | 
7 | C[C@@H](NC1CCC(c2ccc(OCC(=O)O)cc2)C1)c1cccc2ccccc12 (stereo partly drawn) [Compound 1188, {4-[3-((R)-1-Naphthalen-1-yl-ethylamino)-cyclopentyl]-phenoxy}-acetic acid] |  | 97% | 12% |  | 
8 | C[C@@H](NCCCc1cccc(C(F)(F)F)c1)c1cccc2ccccc12 [Cinacalcet, reference compound] | 0.05 µM | 48% | 5% | 0.9 mg/kg | ~20 mg/kg
9 | C[C@@H](N[C@H]1CCC[C@H](c2ccc(C(=O)NCCC(=O)O)cc2)C1)c1cccc2ccccc12.Cl [Compound 1136, 3-{4-[(1S,3S)-3-((R)-1-Naphthalen-1-yl-ethylamino)-cyclohexyl]-benzoylamino}-propionic acid hydrochloride] | 10 µM | 61% | 7% |  | 
10 | C[C@@H](N[C@H]1CC[C@H](c2ccc(CCC(=O)O)cc2)C1)c1cccc2ccccc12.Cl [Compound 1190, 3-{4-[(1S,3S)-3-((R)-1-Naphthalen-1-yl-ethylamino)-cyclopentyl]-phenyl}-propionic acid hydrochloride] | 79 µM | 93% | 18.5% | 0.002 mg/kg | ~0.01 mg/kg
